Experimental data reported in patent publication US20240016924A1, “NEW ADJUVANT TO IMPROVE THE INNATE IMMUNITY” (INSTITUT NATIONAL DE LA SANTÉ ET DE LA RECHERCHE MÉDICALE, priority 2020, published 2024).

Columns and labels:
primary HNECs = test: Signaling inhibitors on P1-induced TSLP expression; type: cell-based, human
Method: The expression of short and long form TSLP was quantified as described (Bjerkan, Schreurs et al. 2015, Dong, Hu et al. 2016). Briefly, total RNA was extracted using Trizol. Five hundred nanograms of RNA were treated with ezDNase Enzyme (Thermo Fisher) to remove genomic DNA, and reverse transcribed into cDNA using the kit SuperScript IV VILO Master Mix according to manufacturer instructions (Thermo Fisher). Quantitative PCR was performed using reported primers (Dong, Hu et al. 2016) and the PowerUp SYBR Green Master Mix according to manufacturer instructions (Thermo Fisher). Reactions were performed in triplicates, with glyceraldehyde-3-phosphate dehydrogenase (GAPDH) as the internal control. Amplification, data acquisition, and analysis were carried out using the LightCycler 480 Software (Roche, Mannheim, Germany). The levels of TSLP mRNA were normalized to the levels of GAPDH using the ΔCt method (Schmittgen and Livak 2008) and were presented as 2-ΔCt values.
Signaling inhibitors Confluent HNEC cells in 24-well plate were pre-incubated with inhibitors for 1 h at 37° C. prior to P1 treatment. Inhibitors, namely dexamethasone (Dex) a NF-kB and MAPK inhibitor (used at 100 nM), and Cyclosporin A (CsA) a Calcineurin Inhibitor (used at 1.5 μM), were from Invivogen and used at the manufacturer's recommended concentrations. […]

RPMI 2650 cells = test: TSLP secretion in nasal RPMI 2650 cell culture supernatants (ELISA); type: cell-based, human
Method: Nasal RPMI 2650 cells (isolated from the human nasal septum, squamous cell carcinoma, ATCC) were grown in MEMα (Minimum Essential Medium α, Thermo Fisher) supplemented with 10% fetal calf serum (FCS, Eurobio, Courtaboeuf, France) and 1% penicillin/streptomycin.
(§1) TSLP, IL-25/IL-17E, IL-33, IFN-γ, IL-10, IL-12/23p40, IL-4, IL-5, IL-6, IL-13, TNF-α, MMP-9, IL-8/CXCL8, […], MDC/CCL22, TARC/CCL17, APRIL and BAFF were measured in culture supernatants from indicated experiments with custom multiplex Luminex assays (Bio-techne) according to the manufacturer's instructions. Additionally, when indicated TSLP was measured in culture supernatants by enzyme-linked immunosorbent assay (ELISA) with a limit of detection of 8 pg/ml (Thermo Fisher) according to the manufacturer's instructions.
We first investigate whether P1 induced TSLP secretion in nasal epithelium. Therefore, we cultured human nasal epithelial cells (RPMI 2650) with P1 Glade B for 2-24 hours at 37° C. and analyzed the culture supernatants for TSLP secretion.

nasal RPMI cells [1] = test: Calcium measurement (Fura-2/AM), nasal RPMI cells; type: cell-based, human; conditions: P1 125 μM vs 2511M, controls at 125 μM, n=3
Method: (§2) 70-80% confluent RPMI 2650 or HNEC cells in 24-well plate were loaded with […] Fura-2/AM (Molecular Probes) in basal medium without serum/growth factors for 1 hour at 37° C. Cells were washed twice with mammalian saline (Conche, Boulla et al. 2009) and measurements were performed in complete medium supplied with HEPS (10 mM) and CaCl2 (2 mM) as described add (Conche, Boulla et al. 2009). Images were acquired with an inverted fluorescence microscope (Observer Z1, Zeiss, Germany) and analyzed with MetaMorph software (Guichard, Bonilla et al. 2017) Calcium was measured every 5 seconds by video fluorescence imaging. Results were expressed as 340 nm to 380 nm fluorescence ratio and normalized to the baseline, i.e. ratio at time zero was set as 1.

nasal RPMI cells [2] = test: Cytokines and chemokines quantification (Luminex), nasal RPMI cells; type: cell-based, human; conditions: 125 μM, 24 hrs
Method: as §1
We next investigated whether, in addition to TSLP, P1 could stimulate epithelial secretion of additional immune factors prone to attract antigen presenting cells (APCs). […] Together with TSLP (Zhou, Xu et al. 2018), this set of immune factors could facilitate recruitment of APCs to the mucosal surface for initiation of an immune response, since CCL20 and CCL2 chemo-attract macrophages and immature dendritic cells (DCs), and MMP-9 degrades the extracellular matrix and facilitates the migration of immune cells in or out the epithelium. Treg cells have IgA-inducing functions and require RA, TGF-b1, IL-10, and TSLP from intestinal epithelial cells and DCs. So, we assumed IL-10 released from either EC or DC may contribute to IgA class switching (Gutzeit, Magri, et al. 2014).

primary HNEC cells = test: Calcium measurement (Fura-2/AM), primary HNEC cells; type: cell-based, human; conditions: P1 125 μM vs 2511M, controls at 125 μM, n=3
Method: as §2

autologous CD4+ T cells = test: DC-T co-cultures, CD4+ T cell proliferation (CFSE); type: cell-based, human; conditions: peptide-primed eduDCs, 125 μM, 5 days, DC/T 1:5
Method: Autologous CD4+ T cells were purified from PMBCs by negative selection according to manufacturer instructions (StemCell Technologies, France) (purity>95%)
DCs and confluent ECs were co-cultured overnight as described above, and DC-EC or eduDC was further incubated with P1 (clade B, 125 μM) or medium for 24 h. Then, DCs were separated and incubated with autologous CD4+ T cells pre-labeled with CFSE (Thermo Fisher) according to the manufacturer's instructions, at a ratio of 1:5 (DC/T). After 5 days of culture, CD4+ T cell proliferation was analyzed by flow cytometry as described (Yeh, Yeh et al. 2013, Qin, Yin et al. 2015) using Phytohaemagglutinin (PHA) (5 μg/mL) as positive control.

[3] = intranasal immunization, gp140 antigen; Van Roey, Arias et al. 2012; cited from earlier work
[4] = system: CD8-depleted PBMCs cocultured with RPMI 2650 cells; test: In vitro immunization assay with ovalbumin; type: cell-based, human; conditions: OVA alone 10 μg/mL, no adjuvant
Method: In vitro immunization assay was performed as reported (Jung, Matsumoto et al. 2007) with modifications. Briefly, 1×10^6 CD8-depleted PBMCs (Human CD8 Depletion Cocktail, StemCell Technologies, France) were cocultured for 24 hrs with RPMI 2650 cells ([…]) pre-seeded in 48 well plates for 48 hrs. Then, ovalbumin (OVA, EndoFit Ovalbumin, 10 µg/mL, Invivogen) alone, OVA together with P1 (5 μM, 25 μM, 125 μM), OVA together with P1 mutant (P1mut, 125 μM), or medium were added to in RPMI 1640 medium supplemented with Non-Essential Amino Acids (NEAA solution, Thermo Fisher), IL-4 ([…]), IL-2 (10 UI/mL) and 2-mercaptoethanol (20 μM) for 7 days.
For the detection of OVA-specific B cells, at indicated time of culture, PMBCs were surface stained with ovalbumin conjugated to fluorescein (OVA-FITC, 20 ug/mL, Thermo), PE-conjugated mouse anti-human CD20 (BD Biosciences, CA, USA), APC-conjugated goat anti-human IgA or donkey anti-human IgG (Jackson ImmunoResearch, PA, USA) as indicated by the manufacturer. Specific labeling was quantified by flow cytometry with a Guava EasyCyte flow cytometer (Merck-Millipore), and analyzed with the dedicated InCyte software, using the following strategy: CD20+ B cells were first gated and cell double positive for OVA-FITC+ and APC-conjugated anti-IgA or anti-IgG were determined as OVA-IgA or IgG-specific B-cell s.
In vitro immunization assays have been used to produce specific monoclonal antibodies using a defined antigen complemented with an adjuvant (Borrebaeck, Danielsson et al. 1987). Here, we establish a mucosal immunization model adapted from (Jung, Matsumoto et al. 2007, Yeh, Yeh et al. 2013, Wijkhuisen, Savatier et al. 2016) and using mucosal DCs based on our results presented above. OVA was selected as the model antigen. Therefore, human CD8-depleted PBMCs (n=5 independent donors) were cocultured with RPMI 2650 cells for one day to educate DCs, and prior to addition of either medium, OVA, OVA plus P1 mutant (P1mut, 125 μM) or OVA plus P1 (5 μM, 25 μM, 125 μM) for seven more days. OVA-specific B cells were quantified by flow cytometry using FITC-conjugated OVA and anti-CD2O-PE to gate on OVA-specific B cells. The Ig isotype of surface B cell receptor (BCR) was next characterized by APC-conjugated anti-human-IgA or anti-human-IgG. […] Similar results were obtained when B cells were stained with anti-CD19-PE.

In the case of `CC(C)CC(=O)N1CCN(C(=O)CCCCCN)CC1` [ENMD-1068], the “reduction of P1-induced TSLP expression” value (primary HNECs; 1 h pre-treatment before P1, CsA 1.5 μM, ENMD-1068 500 μg/mL, n=3) is reported as 46±24% and the “P1-induced up-regulation of miR-4485-3p” value (primary HNECs; inhibitor pre-treatment before P1) is reported as “blocked the up-regulation of miR-4485-3p”.

With “SQIQQKKNEQDLLALDKWANLWNWFDISNWLWYIR (Synthetic P1 clade A) [P1 Glade A]” the “Reduction of TSLP secretion compared to clade B P1” value (RPMI 2650 cells; 125 uM, p<0.05, n=5) was 20% and the “Secretion of TSLP” value (RPMI 2650 cells; peptide at 125 uM, 4 hours, n=5) was 41.8 ± 2.6 pg/mL.

With “SQTQQEKNEQELLALDSWKNLWNWFSITNWLWYIK [P1 Glade C]” the “extracellular calcium influx (340/380 nm ratio)” value (nasal RPMI cells [1]) was “fails to raise the calcium level significantly”, the “secretion of MMP-9, CCL20, CCL2 and IL-10” value (nasal RPMI cells [2]) was “unable to stimulate significant MMP-9, CCL-20 CCL2 or IL-10 production” and the “extracellular calcium influx (340/380 nm ratio)” value (primary HNEC cells) was “fails to raise the calcium level significantly”. The “proliferation of autologous CD4+ T cells” value (autologous CD4+ T cells) was “has no effect” and the “Induction of TSLP secretion by P1 variants” value (RPMI 2650 cells; RPMI nasal cells, 4 hours) was “failed to induce TSLP secretion”.

For Thymic stromal lymphopoietin [TSLP], the “humoral response as mucosal adjuvant” value [3] is given as “induced a strong humoral response both in serum and at genital level”.

B1: ovalbumin (protein, UniProt P01012 2-386, looked up)
Ovalbumin: GSIGAASMEFCFDVFKELKVHHANENIFYCPIAIMSALAMVYLGAKDSTRTQINKVVRFDKLPGFGDSIEAQCGTSVNVHSSLRDILNQITKPNDVYSFSLASRLYAEERYPILPEYLQCVKELYRGGLEPINFQTAADQARELINSWVESQTNGIIRNVLQPSSVDSQTAMVLVNAIVFKGLWEKAFKDEDTQAMPFRVTEQESKPVQMMYQIGLFRVASMASEKMKILELPFASGTMSMLVLLPDEVSGLEQLESIINFEKLTEWTSSNVMEERKIKVYLPRMKMEEKYNLTSVLMAMGITDVFSSSANLSGISSAESLKISQAVHAAHAEINEAGREVVGSAEAGVDAASVSEEFRADHPFLFCIKHIATNAVLFFGRCVSP
notes: model antigen, EndoFit Ovalbumin, Invivogen
For B1, the “induction of OVA-specific B cells” value [4] was “failed to induce OVA-specific specific B cells”.
